# Experimental data: patent US6107104A, “Modulators of anchoring protein function” (ICOS Corporation, priority 1996, dated 2000)
# Ends that are not written are not given here.
# How the values were obtained:
# [1] = in vivo; cited from earlier work
# [2] = following liver transplantation; cited from earlier work
# [3] = target: T1, CaN (Rattus norvegicus, UniProt P63329); test: CaN phosphatase activity toward 32P RII peptide substrate; type: biochemical
# T1 construct: made in house; host or cells: Sf9 cells (baculovirus)
# Protocol: (§1) To determine whether AKAP 79 peptide binding inhibits CaN activity, CaN phosphatase activity was assayed in the presence of recombinant AKAP 79. Briefly, recombinant AKAP 79 was expressed in E. coli as described in Carr et al., J. Biol. Chem., 267:16816-16823 (1992), incorporated herein by reference. CaN and the constitutively active truncation mutant CaN420 (a truncated, Ca^2+ /calmodulin independent constitutively active form of CaN (Perrino et al., J. Biol. Chem., in press)) were expressed in Sf9 cells and purified on calmodulin-Sepharose as described in Perrino et al., J. Biol Chem., 267:15965-15969 (1992), incorporated herein by reference. Phosphatase activity toward ^32 P RII peptide substrate was measured as described in Perrino et al., supra. CaN (30 nM), calmodulin (100 nM) and ^32 P RII peptide (22 μM) were incubated with AKAP 79 protein and AKAP 79 peptide (SEQ ID NO:1-amino acids 81-102) over the range of concentrations indicated in FIG. 1B. Calmodulin was omitted from CaN420 assays. ^32 P released from the substrate was measured in triplicate samples in three separate experiments by scintillation counting. The inhibition constant (Ki) of recombinant AKAP 79 for CaN was determined by linear regression analysis of data. Ki values for AKAP 79 peptide were estimated by determining the IC50 using a fixed substrate concentration at Km (42 μM).
# [4] = target: T2, CaN420 (Rattus norvegicus, UniProt P63329); test: CaN420 phosphatase activity toward 32P RII peptide substrate; type: biochemical; conditions: calmodulin omitted
# T2 construct: a truncated, Ca^2+ /calmodulin independent constitutively active form of CaN; made in house; host or cells: Sf9 cells (baculovirus)
# Protocol: as §1
# [5] = tested on: protein phosphatases 2A; test: Protein phosphatase 2A activity; type: biochemical; conditions: peptide concentrations as high as 0.4 mM
# [6] = tested on: protein phosphatases 1; test: Protein phosphatase 1 activity; type: biochemical; conditions: peptide concentrations as high as 0.4 mM
# [7] = tested on: ^32 P-inhibitor 1; test: Calcineurin phosphatase assay of reconstituted CaN holo-enzyme; type: biochemical; conditions: in association with CaN B, ten minute incubation at room temperature, 33 nM complex
# Protocol: The activity of CaN is measured by the Ca^2+ --and calmodulin-dependentrelease of ^32 Pi from ^32 P-inhibitor 1, using the method of Nairn, et al. [Neuroprotocols 6:108-111 (1995)]. Identified chemicals are pre-incubated with 4 or 30 nM CaN before initiation of the reaction with ^32 P-inhibitor 1 (Chemicon). Inhibitor 1 (50 μg) was phosphorylated using the catalytic subunit of PKA and purified according to the procedure described in Nairn, et al., [supra]. Phosphatase activity in the absence of chemicals is defined as 100%.
# In order to determine if the mutated CaN A protein retained phosphatase activity, a CaN holo-enzyme was reconstituted. One micromole of purified wild type or mutant CaN A was incubated with equal molar amount of purified CaN B (Chemicon), and calmodulin (Sigma) in 50 mM Hepes, pH 7.5, 1 mM MnCl2, 0.5 mM EDTA, 1 mM DDT, and 2 mg/ml BSA, for 24 hours at 4° C., after which 33 nM of the reconstituted complex was used in a calcineurin phosphatase assay using ^32 P-inhibitor 1 as substrate as described in Example 14.
compound,measurement,setting,value
N=C(N)NCCCCCCC(=O)NC(O)C(=O)NCCCCNCCCN (centres unmarked) [15-Deoxyspergualin],effective in refractory kidney rejection,[1],70-90%
"C=CC[C@@H]1/C=C(\C)C[C@H](C)C[C@H](OC)[C@H]2O[C@@](O)(C(=O)C(=O)N3CCCC[C@H]3C(=O)O[C@H](/C(C)=C/[C@@H]3CC[C@@H](O)[C@H](OC)C3)[C@H](C)[C@@H](O)CC1=O)[C@H](C)C[C@@H]2OC [FK506, reference compound]",patients with moderate to severe neurotoxicity,[2],10-20%
same,effect on the potency of inhibition of CaN by AKAP 79,[3]; FK506 2 μM,did not affect
RRKRSQSSKEEKP [AKAP 79 peptide],inhibition of CaN420 phosphatase activity,[4],inhibited
same,effect on activity of protein phosphatase 2A,[5],did not significantly affect
same,inhibition of full-length CaN phosphatase activity,"[3]; Ca2+/calmodulin dependent CaN 30 nM, 32P RII peptide substrate",inhibited
same,effect on activity of protein phosphatase 1,[6],did not significantly affect
"biotinylated CaN A: endogenously biotinylated rat brain calcineurin A, wild type",dephosphorylation of substrate,[7],33%
